Target: LPA1 (Homo sapiens, UniProt Q92633)
Test: LPA1 functional antagonist assay (LPA-induced calcium flux)
Type: cell-based
Design: expressed in transfected cells; host or cells: Chinese hamster ovary (CHO) cells
Settings: CHO cells overexpressing human LPA1; calcium flux induced by 10 nM LPA; read-out: hLPA1 IC50
Protocol: The effectiveness of compounds of the present invention as LPA1 inhibitors can be determined in an LPA1 functional antagonist assay as follows:
Chinese hamster ovary cells overexpressing human LPA1 were plated overnight (15,000 cells/well) in poly-D-lysine coated 384-well microplates (Greiner bio-one, Cat #781946) in DMEM/F12 medium (Gibco, Cat #11039). Following overnight culture, cells were loaded with calcium indicator dye (AAT Bioquest Inc, Cat #34601) for 30 minutes at 37° C. The cells were then equilibrated to room temperature for 30 minutes before the assay. Test compounds solubilized in DMSO were transferred to 384 well non-binding surface plates (Corning, Cat #3575) using the Labcyte Echo acoustic dispense and diluted with assay buffer [1×HBSS with calcium/magnesium (Gibco Cat #14025-092), 20 mM HEPES (Gibco Cat #15630-080) and 0.1% fatty acid free BSA (Sigma Cat # A9205)] to a final concentration of 0.5% DMSO. Diluted compounds were added to the cells by FDSS6000 (Hamamatsu) at final concentrations ranging from 0.08 nM to 5 μM. and were then incubated for 20 min at room temperature at which time LPA (Avanti Polar Lipids Cat #857130C) was added at final concentrations of 10 nM to stimulate the cells. […] IC50 values were determined by fitting data to a 4-parameter logistic equation (GraphPad Prism, San Diego Calif.).

Sequence of LPA1 (Q92633 whole entry): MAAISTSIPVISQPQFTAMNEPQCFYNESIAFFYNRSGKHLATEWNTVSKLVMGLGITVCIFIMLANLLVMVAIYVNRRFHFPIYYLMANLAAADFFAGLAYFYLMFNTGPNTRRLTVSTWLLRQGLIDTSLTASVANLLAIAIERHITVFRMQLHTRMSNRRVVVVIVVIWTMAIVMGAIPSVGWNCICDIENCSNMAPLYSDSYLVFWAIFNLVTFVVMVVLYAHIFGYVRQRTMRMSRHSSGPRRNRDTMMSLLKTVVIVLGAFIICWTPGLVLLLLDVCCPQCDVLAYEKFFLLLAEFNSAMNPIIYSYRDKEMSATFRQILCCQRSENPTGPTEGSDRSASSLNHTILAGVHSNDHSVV

Row | SMILES | IC50 [nM]
1 | Cc1nc(-c2cnn(C)c2COC(=O)N(C)C[C@H]2C[C@@H]2C)ncc1O[C@H]1CCC[C@H](C(=O)O)C1 [Example 92] | 45
2 | Cc1nc(-c2cnn(C)c2COC(=O)N(C)CCC(C)C)ccc1O[C@H]1CCC[C@H](C(=O)O)C1 [Example 24] | 5
3 | CC(C1CCC1)N(C)C(=O)OCc1c(-c2ccc(O[C@H]3CCCC(C(=O)O)C3)cn2)cnn1C (stereo partly drawn) [Example 2] | 136
4 | Cc1nc(-c2cnn(C)c2COC(=O)NC2CCCCC2)ncc1O[C@H]1CCC[C@H](C(=O)O)C1 [Example 81] | 856
5 | CC(C)CN(C)C(=O)OCc1c(-c2ccc(O[C@H]3CCC[C@H](C(=O)O)C3)cc2)cnn1C [Example 49] | 286
6 | Cc1nc(-c2cnn(C)c2COC(=O)N(C)Cc2ccccc2)cnc1O[C@H]1CCC[C@H](C(=O)O)C1 [Example 8] | 34
7 | Cc1nc(-c2cnn(C)c2COC(=O)N(C)C2CCCCC2)ncc1O[C@H]1CCC[C@H](C(=O)O)C1 [Example 79] | 93
8 | CCCN(C)C(=O)OCc1c(-c2ccc(O[C@H]3CCC[C@H](C(=O)O)C3)c(C)n2)cnn1C [Example 12] | 54
9 | Cc1nc(-c2cnn(C)c2COC(=O)N(C)CCC2CC2(F)F)ncc1O[C@H]1CCC[C@H](C(=O)O)C1 (stereo partly drawn) [Example 78] | 317
10 | CCCCN(C)C(=O)OCc1c(-c2ccc(O[C@H]3CCC[C@H](C(=O)O)C3)c(C)c2)cnn1C [Example 60] | 11
11 | Cc1cc(-c2cnn(C)c2COC(=O)N(C)C2CCCC2)ccc1O[C@H]1CCC[C@H](C(=O)O)C1 [Example 48] | 8
12 | CCc1nc(-c2cnn(C)c2COC(=O)N(C)CC2CC2)ncc1O[C@H]1CCC[C@H](C(=O)O)C1 [Example 85] | 162
13 | Cc1nc(-c2cnn(C)c2COC(=O)N(C)CC2CCCC2)ccc1O[C@H]1CCC[C@H](C(=O)O)C1 [Example 13] | 244
14 | Cc1nc(-c2cnn(C)c2COC(=O)N(C)CCCCCF)ncc1O[C@H]1CCC[C@H](C(=O)O)C1 [Example 73] | 142
15 | CCc1nc(-c2cnn(C)c2COC(=O)N(C)C2CCC2)ncc1O[C@H]1CCC[C@H](C(=O)O)C1 [Example 86] | 217
16 | Cc1nc(-c2cnn(C)c2COC(=O)N(C)CCCCF)ncc1O[C@H]1CCC[C@H](C(=O)O)C1 [Example 74] | 77
17 | C[C@H](C1CC1)N(C)C(=O)OCc1c(-c2ccc(O[C@H]3CCC[C@H](C(=O)O)C3)cn2)cnn1C [Example 1, (1S,3S)-3-((6-(5-(((((R)-1-cyclopropylethyl)(methyl)carbamoyl)oxy)methyl)-1-methyl-1H-pyrazol-4-yl)pyridin-3-yl)oxy)cyclohexane-1-carboxylic Acid] | 67
18 | Cc1cc(-c2cnn(C)c2COC(=O)N(C)C(C)C2CC2)ccc1O[C@H]1CCC[C@H](C(=O)O)C1 (stereo partly drawn) [Example 47] | 27
19 | CN(C(=O)OCc1c(-c2ccc(O[C@@H]3CCC[C@@H](C(=O)O)C3)cc2)cnn1C)C1CCC1 [Example 42] | 415
20 | CCCCN(C)C(=O)OCc1c(-c2ccc(O[C@H]3CCC[C@H](C(=O)O)C3)cn2)cnn1C [Example 35] | 9
21 | CCCCN(C)C(=O)OCc1c(-c2ccc(O[C@H]3CCC[C@H](C(=O)O)C3)cc2)cnn1C [Example 64] | 23
22 | Cc1nc(-c2cnn(C)c2COC(=O)N(C)Cc2ccccc2)ccc1O[C@@H]1CCC[C@@H](C(=O)O)C1 (racemic) [Example 27] | 24
23 | CCCCN(C)C(=O)OCc1c(-c2ccc(O[C@H]3CCC[C@H](C(=O)O)C3)c(C)n2)cnn1C [Example 20] | 16
24 | CC(C)CCN(C)C(=O)OCc1c(-c2ccc(O[C@H]3CCC[C@H](C(=O)O)C3)cc2)cnn1C [Example 38] | 6
25 | Cc1nc(-c2cnn(C)c2COC(=O)N(C)Cc2cccc(Cl)c2)ccc1O[C@H]1CCC[C@H](C(=O)O)C1 [Example 14] | 1120
26 | CC(C1CCC1)N(C)C(=O)OCc1c(-c2ccc(O[C@H]3CCC[C@H](C(=O)O)C3)cc2)cnn1C (stereo partly drawn) [Example 55] | 22
27 | Cc1nc(-c2cnn(C)c2COC(=O)N(C)C2CCC2)ncc1O[C@H]1CCC[C@H](C(=O)O)C1 [Example 70] | 120

— patent publication US11261174B2, “Pyrazole O-linked carbamoyl cyclohexyl acids as LPA antagonists” (BRISTOL-MYERS SQUIBB COMPANY, priority 2017, dated 2022)
